Measurements reported in the NIST ThermoML archive (doi:10.1016/j.fluid.2007.04.030).

Experiment: xn = mol fraction of the nth substance listed
Conditions: 101 kPa, Liquid

COc1cc2c(cc1O)CC1c3c(cc(O)c(OC)c3-2)CCN1C (configuration not stated) [boldine] + CCO
mass density [kg/m3]
Conditions | x1 = 0.00151 | x1 = 0.0036 | x1 = 0.00737 | x1 = 0.01217 | x1 = 0.0177 | x1 = 0.02066 | x1 = 0.02425 | x1 = 0.02539
283.15 K | 801.79 | 806.58 | 815.68 | 826.69 | 838.83 | 845.25 | 852.81 | 855.28
288.15 K | 797.54 | 802.33 | 811.43 | 822.44 | 834.59 | 841.01 | 848.57 | 851.04
293.15 K | 793.27 | 798.06 | 807.16 | 818.18 | 830.32 | 836.74 | 844.3 | 846.79
298.15 K | 788.97 | 793.77 | 802.87 | 813.89 | 826.03 | 832.46 | 840.02 | 842.51
303.15 K | 784.65 | 789.45 | 798.55 | 809.57 | 821.71 | 828.14 | 835.71 | 838.2
308.15 K | 780.3 | 785.1 | 794.2 | 805.23 | 817.37 | 823.79 | 831.35 | 833.86
313.15 K | 775.91 | 780.71 | 789.81 | 800.84 | 813 | 819.42 | 826.97 | 829.49
318.15 K | 771.49 | 776.27 | 785.38 | 796.41 | 808.57 | 815 | 822.56 | 825.07
323.15 K | 767.01 | 771.79 | 780.9 | 791.93 | 804.1 | 810.54 | 818.09 | 820.6
328.15 K | 762.47 | 767.24 | 776.37 | 787.4 | 799.57 | 806.01 | 813.57 | 816.08
333.15 K | 757.86 | 762.64 | 771.76 | 782.8 | 794.98 | 801.42 | 808.99 | 811.5

COc1cc2c(cc1O)CC1c3c(cc(O)c(OC)c3-2)CCN1C (configuration not stated) [boldine] + CO
mass density [kg/m3]
Conditions | x1 = 0.00099 | x1 = 0.002 | x1 = 0.00302 | x1 = 0.00406 | x1 = 0.00513 | x1 = 0.00788 | x1 = 0.01077 | x1 = 0.01696 | x1 = 0.02389
283.15 K | 804.63 | 808.15 | 811.7 | 815.24 | 818.83 | 827.92 | 837.15 | 856.15 | 875.72
288.15 K | 799.96 | 803.48 | 807.04 | 810.59 | 814.19 | 823.28 | 832.53 | 851.55 | 871.15
293.15 K | 795.27 | 798.79 | 802.35 | 805.91 | 809.51 | 818.62 | 827.88 | 846.93 | 866.56
298.15 K | 790.57 | 794.1 | 797.66 | 801.22 | 804.83 | 813.95 | 823.21 | 842.29 | 861.96
303.15 K | 785.86 | 789.39 | 792.96 | 796.52 | 800.14 | 809.27 | 818.54 | 837.63 | 857.34
308.15 K | 781.12 | 784.66 | 788.23 | 791.8 | 795.42 | 804.56 | 813.85 | 832.96 | 852.69
313.15 K | 776.35 | 779.89 | 783.47 | 787.05 | 790.67 | 799.82 | 809.13 | 828.27 | 848.03
318.15 K | 771.55 | 775.1 | 778.68 | 782.26 | 785.89 | 795.05 | 804.37 | 823.55 | 843.34
323.15 K | 766.71 | 770.26 | 773.84 | 777.43 | 781.07 | 790.25 | 799.58 | 818.78 | 838.61
328.15 K | 761.83 | 765.38 | 768.97 | 772.57 | 776.2 | 785.4 | 794.75 | 813.97 | 833.84
333.15 K | 756.89 | 760.45 | 764.05 | 767.65 | 771.29 | 780.5 | 789.86 | 809.11 | 829.02
